“And” between values parts separate entries of the source, which are not always exact repeats. Identical values can stand only once. “Also recorded” adds a separate entry of the source. Like-named read-outs stand apart in the source and are kept apart here. Square brackets hold non-standard residues; d marks the D form. Peptide text beside a SMILES is read from it. Bip = N[C@@H](Cc1ccc(-c2ccccc2)cc1)C(=O)O; dBip = N[C@H](Cc1ccc(-c2ccccc2)cc1)C(=O)O; dPhe(4-I) = N[C@H](Cc1ccc(I)cc1)C(=O)O; Bta = N[C@@H](Cc1csc2ccccc12)C(=O)O; 3Pal = N[C@@H](Cc1cccnc1)C(=O)O; 2Thi = N[C@@H](Cc1cccs1)C(=O)O
Assays:
mMC1R = mMC1R (Mus musculus, UniProt Q01727); assay: CRE/β-galactosidase reporter gene bioassay, agonist activity at mMC1R; assay type: cell-based; details: for mMC1R Fold Diff: fold difference in EC50 vs peptide 1, negative prefix = more potent than 1; for EC50: mMC1R EC50, agonist, HEK-293 cells stably expressing receptor, ±SEM; for mMC1R pharmacology in words: comparisons are to reference peptide 1
mMC3R [1] = biological target: T1, mMC3R (Mus musculus, UniProt P33033); assay: Antagonist Schild analysis against agonist MTII at mMC3R; assay type: cell-based; details: for mMC3R pharmacology class printed in Fold Diff column (Ant, SA): Ant = antagonist, SA = some stimulatory activity at 100 µM
mMC5R [2] = biological target: T2, mMC5R (Mus musculus, UniProt P41149); assay: CRE/β-galactosidase reporter gene bioassay, agonist activity at mMC5R; assay type: cell-based; details: for mMC5R pharmacology in words: comparisons are to reference peptide 1; for mMC5R Fold Diff.: fold difference in EC50 vs peptide 1, negative prefix = more potent than 1; for mMC5R fold less potent than peptide 1: less potent than 1
mMC4R [3] = biological target: T3, mMC4R (Mus musculus, UniProt P56450); assay: Antagonist Schild analysis against agonist MTII at mMC4R; assay type: cell-based; details: for mMC4R pharmacology class printed in Fold Diff. column (Ant, SA): Ant = antagonist, SA = some stimulatory activity at 100 µM
mMC3R [4] = biological target: T1, mMC3R; assay: cell-based; assay type: cell-based
mMC4R [5] = biological target: T3, mMC4R; assay: CRE/β-galactosidase reporter gene bioassay, agonist activity at mMC4R; assay type: cell-based; details: ligand at 100 μM, compared to maximal response generated by α-MSH
mMC5R [6] = biological target: T2, mMC5R; details: read-out: mMC5R EC50, reference peptide from the literature, cited from earlier work
mMC3R [7] = biological target: T1, mMC3R; details: read-out: mMC3R EC50, reference peptide from the literature, cited from earlier work
[8] = ligand at 100 μM, compared to maximal response generated by α-MSH

T1 sequence (P33033 whole entry): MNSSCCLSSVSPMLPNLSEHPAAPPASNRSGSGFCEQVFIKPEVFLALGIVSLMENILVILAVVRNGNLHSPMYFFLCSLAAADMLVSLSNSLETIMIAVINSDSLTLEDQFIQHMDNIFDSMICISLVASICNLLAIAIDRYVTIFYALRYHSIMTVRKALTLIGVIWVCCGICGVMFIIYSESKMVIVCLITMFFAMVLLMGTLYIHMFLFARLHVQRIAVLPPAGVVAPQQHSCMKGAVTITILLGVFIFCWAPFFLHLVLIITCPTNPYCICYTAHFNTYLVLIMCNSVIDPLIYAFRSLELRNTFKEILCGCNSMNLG
Chain of mMC1R (Q01727 whole entry): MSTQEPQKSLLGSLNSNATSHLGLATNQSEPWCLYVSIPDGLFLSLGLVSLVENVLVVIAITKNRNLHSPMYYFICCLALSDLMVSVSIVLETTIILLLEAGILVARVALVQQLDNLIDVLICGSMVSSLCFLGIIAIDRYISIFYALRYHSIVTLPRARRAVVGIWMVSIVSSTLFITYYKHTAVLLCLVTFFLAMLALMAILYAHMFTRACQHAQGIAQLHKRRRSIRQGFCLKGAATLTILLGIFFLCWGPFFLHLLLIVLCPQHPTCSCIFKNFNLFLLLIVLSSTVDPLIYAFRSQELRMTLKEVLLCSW
T2 sequence (P41149 whole entry): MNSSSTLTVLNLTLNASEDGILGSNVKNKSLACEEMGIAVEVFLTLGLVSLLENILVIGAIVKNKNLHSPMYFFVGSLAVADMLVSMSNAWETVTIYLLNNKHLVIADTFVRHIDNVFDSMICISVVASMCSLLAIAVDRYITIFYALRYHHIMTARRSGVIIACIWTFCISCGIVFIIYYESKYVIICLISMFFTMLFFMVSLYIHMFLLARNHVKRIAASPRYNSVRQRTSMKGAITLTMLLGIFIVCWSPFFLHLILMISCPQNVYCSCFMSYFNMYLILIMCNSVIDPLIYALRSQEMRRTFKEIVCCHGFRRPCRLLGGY
T3 sequence (P56450 whole entry): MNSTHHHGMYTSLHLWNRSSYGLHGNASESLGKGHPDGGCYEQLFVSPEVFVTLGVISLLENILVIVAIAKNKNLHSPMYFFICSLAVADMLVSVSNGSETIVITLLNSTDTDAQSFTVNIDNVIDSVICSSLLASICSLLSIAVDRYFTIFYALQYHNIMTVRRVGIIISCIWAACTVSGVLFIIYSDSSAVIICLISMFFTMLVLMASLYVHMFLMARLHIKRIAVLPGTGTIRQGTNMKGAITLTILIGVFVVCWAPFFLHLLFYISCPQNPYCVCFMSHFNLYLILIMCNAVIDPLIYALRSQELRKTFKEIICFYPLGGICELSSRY

Molecule | mMC1R Fold Diff (mMC1R) | EC50 (mMC1R) | Kb (mMC3R [1]) | mMC3R pharmacology class printed in Fold Diff column (Ant, SA) (mMC3R [1]) | EC50 (mMC5R [2]) | mMC5R pharmacology in words (mMC5R [2]) | Kb (mMC4R [3]) | mMC4R pharmacology class printed in Fold Diff. column (Ant, SA) (mMC4R [3]) | mMC3R relative percentage of stimulation at 100 μM (mMC3R [4]; [8]) | mMC4R relative percentage of stimulation at 100 μM (mMC4R [5]) | mMC5R Fold Diff. (mMC5R [2]) | mMC1R pharmacology in words (mMC1R) | further results
CCCCCCCC(=O)N[C@@H](Cc1c[nH]cn1)C(=O)N[C@H](Cc1ccc(I)cc1)C(=O)N[C@@H](CCCNC(=N)N)C(=O)N[C@@H](Cc1c[nH]c2ccccc12)C(N)=O [Peptide 6, Octanoyl-His-(pI)DPhe-Arg-Trp-NH2] | −22 | 6.3 ± 2.4 nM | 5.01 nM | Ant | 5.8 ± 1.7 nM | equipotent | 2.51 nM | Ant | 50% | 30% |  |  | Ki (mMC4R [3]): ~3 nM; mMC3R relative percentage of stimulation at 100 μM (mMC3R [4]; 100000.0): 50%−65%
CC(=O)N[C@@H](Cc1cccnc1)C(=O)N[C@H](Cc1ccc(I)cc1)C(=O)N[C@@H](CCCNC(=N)N)C(=O)N[C@@H](Cc1c[nH]c2ccccc12)C(N)=O [Peptide 12, Ac-3PAL-(pI)DPhe-Arg-Trp-NH2] (Ac-[3Pal][dPhe(4-I)]RW-NH2) | 34 | 4800 ± 1400 nM | 100 nM | Ant | 18000 ± 3000 nM |  | 5.01 nM | SA Ant |  | 35% | 3340 |  | mMC5R fold less potent than peptide 1 (mMC5R [2]): 3300 fold
CC(=O)N[C@@H](Cc1cccs1)C(=O)N[C@H](Cc1ccc(I)cc1)C(=O)N[C@@H](CCCNC(=N)N)C(=O)N[C@@H](Cc1c[nH]c2ccccc12)C(N)=O [Peptide 14, Ac-2Thi-(pI)DPhe-Arg-Trp-NH2] (Ac-[2Thi][dPhe(4-I)]RW-NH2) |  | 490 ± 150 nM | 39.8 nM | SA Ant | 71 ± 30 nM |  | 3.98 nM | SA Ant | 40% | 55% | 14 | equipotent | mMC5R fold less potent than peptide 1 (mMC5R [2]): 11- to 25 fold
CC(=O)N[C@@H](Cc1ccccc1)C(=O)N[C@H](Cc1ccc(I)cc1)C(=O)N[C@@H](CCCNC(=N)N)C(=O)N[C@@H](Cc1c[nH]c2ccccc12)C(N)=O [Peptide 15, Ac-Phe-(pI)DPhe-Arg-Trp-NH2] (Ac-F[dPhe(4-I)]RW-NH2) | 6 | 820 ± 320 nM | 126 nM | SA Ant | 140 ± 30 nM |  | 20 nM | SA Ant | 20% | 30% | 25 |  | mMC5R fold less potent than peptide 1 (mMC5R [2]): 11- to 25 fold
CC(=O)N[C@@H](Cc1c[nH]c2ccccc12)C(=O)N[C@H](Cc1ccc(-c2ccccc2)cc1)C(=O)N[C@@H](CCCNC(=N)N)C(=O)N[C@@H](Cc1c[nH]c2ccccc12)C(N)=O [Peptide 18, Ac-Trp-DBip-Arg-Trp-NH2] (Ac-W[dBip]RW-NH2) | 13 | 1800 ± 1000 nM | 200 nM | Ant | 1800 ± 1300 nM | non-selective mMC1R and mMC5R micromolar agonist profile | 100 nM | SA Ant |  | 45% | 340 | non-selective mMC1R and mMC5R micromolar agonist profile | 
CC(=O)N[C@@H](Cc1c[nH]cn1)C(=O)N[C@H](Cc1ccc(I)cc1)C(=O)N[C@@H](CCCNC(=N)N)C(=O)N[C@@H](Cc1ccc(-c2ccccc2)cc1)C(N)=O [Peptide 29, Ac-His-(pI)DPhe-Arg-Bip-NH2] (Ac-H[dPhe(4-I)]R[Bip]-NH2) |  | 47 ± 9 nM | 200 nM | SA Ant | 12.4 ± 2 nM | equipotent agonists; also recorded: very potent nanomolar agonist activity | 39.8 nM | SA Ant | 35% | 30% |  |  | 
CC(=O)N[C@@H](Cc1c[nH]cn1)C(=O)N[C@H](Cc1ccc(I)cc1)C(=O)N[C@@H](CCCNC(=N)N)C(=O)N[C@@H](Cc1csc2ccccc12)C(N)=O [Peptide 30, Ac-His-(pI)DPhe-Arg-3Bal-NH2] (Ac-H[dPhe(4-I)]R[Bta]-NH2) |  | 45 ± 14 nM | 39.8 nM | SA Ant | 3.2 ± 0.7 nM | equipotent agonists; also recorded: very potent nanomolar agonist activity | 10 nM | SA Ant | 25% | 50% |  |  | 
CC(=O)N[C@@H](Cc1c[nH]cn1)C(=O)N[C@H](Cc1ccc(-c2ccccc2)cc1)C(=O)N[C@@H](CCCNC(=N)N)C(=O)N[C@@H](Cc1ccc(-c2ccccc2)cc1)C(N)=O [Peptide 33, Ac-His-DBip-Arg-Bip-NH2] (Ac-H[dBip]R[Bip]-NH2) | −9 | 15.8 ± 6.1 nM | 501 nM | Ant | 31.2 ± 4.7 nM | less potent | 158 nM | Ant |  | 30% | 6 | more potent | 
CC(=O)N[C@@H](Cc1c[nH]cn1)C(=O)N[C@H](Cc1ccc(-c2ccccc2)cc1)C(=O)N[C@@H](CCCNC(=N)N)C(=O)N[C@@H](Cc1csc2ccccc12)C(N)=O [Peptide 34, Ac-His-DBip-Arg-3Bal-NH2] (Ac-H[dBip]R[Bta]-NH2) | −16 | 9 nM and 8.9 nM | 316 nM | SA Ant | 6.9 ± 0.2 nM | equipotent agonists | 20 nM | SA Ant | 55% | 65% |  | more potent | mMC1R fold difference in EC50, more potent than reference peptide 1 (mMC1R; more potent agonist than 1): 16 fold
CC(=O)N[C@@H](Cc1c[nH]cn1)C(=O)N[C@H](Cc1ccc(-c2ccccc2)cc1)C(=O)N[C@@H](CCCNC(=N)N)C(=O)N[C@H](Cc1ccc(-c2ccccc2)cc1)C(N)=O [Peptide 35, Ac-His-DBip-Arg-DBip-NH2] (Ac-H[dBip]R[dBip]-NH2) |  | 90 ± 20 nM | 200 nM | Ant | 42 ± 7 nM | less potent | 158 nM | SA Ant |  | 23% | 8 | within 3-fold experimental error | 
Ac-DHis-DPhe-Arg-Trp-NH2 [Peptide 53] |  |  |  |  |  |  |  |  |  |  |  |  | EC50 (mMC5R [6]; ref [33]): 140 ± 20 nM; EC50 (mMC3R [7]; ref [33]): 6200 ± 2500 nM
Ac-His-(pI)DPhe-Arg-Trp-NH2 [Peptide 45] |  |  |  |  |  |  |  |  |  |  |  |  | EC50 (mMC5R [6]; ref [32]): 1.6 ± 0.4 nM
Octanoyl-His-DPhe-Arg-Trp-NH2 [Peptide 54] |  |  |  |  |  |  |  |  |  |  |  |  | EC50 (mMC5R [6]; ref [34]): 0.79 ± 0.25 nM; EC50 (mMC3R [7]; ref [34]): 4 ± 0.7 nM

From paper PMC6261661 (ACS chemical neuroscience, 2018)
